Assay: on-resin side-chain-to-N-terminus lactamisation (lanthionine D-half alpha-COOH + N-terminal amine); PyAOP 5 eq, HOAt 5 eq, DIPEA 10 eq, after TBAF (Teoc/TMSE) and piperidine (Fmoc) removal; NovaSyn TGT low-loading resin
Conditions: the molecule shown is the open-chain precursor, DMF, 60.0 °C

Row | Compound | ring closure, overall yield (16-membered ring, 3.1 h) [%] | further results
1 | *OC(=O)[C@@H](NC(=O)[C@H](CSC[C@@H](N)C(=O)O)NC(=O)CNC(=O)[C@@H](N)CC(C)C)[C@@H](C)OC(C)(C)C | – | ring closure, overall yield (13-membered ring, 3.1 h): 34%
2 | *OC(=O)[C@H](CCCCNC(=O)OC(C)(C)C)NC(=O)[C@H](CS[C@@H](C)[C@@H](N)C(=O)O)NC(=O)CNC(=O)[C@@H]1CCCN1 | – | ring closure, overall yield (13-membered ring, 5.1 h): 37%
3 | *OC(=O)[C@H](C)NC(=O)[C@H](CSC[C@@H](N)C(=O)O)NC(=O)[C@H](CC(C)C)NC(=O)[C@H](CSC(c1ccccc1)(c1ccccc1)c1ccccc1)NC(=O)[C@@H](N)CC(C)C | 15 | –
4 | *OC(=O)[C@H](C)NC(=O)[C@H](CSC[C@@H](N)C(=O)O)NC(=O)[C@H](CC(C)C)NC(=O)[C@H](CSC(c1ccccc1)(c1ccccc1)c1ccccc1)NC(=O)[C@@H](N)[C@@H](C)CC | 11 | –
5 | *OC(=O)[C@H](C)NC(=O)[C@H](CSC[C@@H](N)C(=O)O)NC(=O)[C@H](CC(C)C)NC(=O)[C@H](COC(C)(C)C)NC(=O)[C@@H](N)CC(C)C | 5 | –
6 | *OC(=O)[C@H](C)NC(=O)[C@H](CSC[C@@H](N)C(=O)O)NC(=O)[C@H](CC(C)C)NC(=O)[C@H](C)NC(=O)[C@@H](N)CC(C)C | 3 | –
7 | *OC(=O)[C@H](CCCCNC(=O)OC(C)(C)C)NC(=O)[C@H](CSC[C@@H](N)C(=O)O)NC(=O)CNC(=O)[C@@H]1CCCN1 | – | ring closure, overall yield (13-membered ring, 3.1 h): 7%

Reference: PMC6759747
